Data as given in the Kinase Knowledgebase extract (Sharma et al. 2016).

What was measured:
PIK3CD (Human) [1] = target: PIK3CD (Human) (UniProt O00329); experiment: Assessment of PIK3CD Kinase Activity in RAJI Cells
PIK3CA (human) [2] = target: PIK3CA (human) (UniProt P42336); experiment: Assessment of PIK3CA Kinase Activity in SKOV-3 Cells
PIK3CD (Human) [3] = target: PIK3CD (Human) (UniProt O00329); experiment: Assessment of PIK3CD Kinase Activity
PIK3CG (human) = PIK3CG (human) (UniProt P48736); experiment: Assessment of PIK3CG Kinase Activity
PIK3CB (Human) = PIK3CB (Human) (UniProt P42338); experiment: Assessment of PIK3CB Kinase Activity
PIK3CA (human) [4] = target: PIK3CA (human) (UniProt P42336); experiment: Assessment of PIK3CA Kinase Activity

Sequence of PIK3CA (human) (P42336 whole entry, looked up): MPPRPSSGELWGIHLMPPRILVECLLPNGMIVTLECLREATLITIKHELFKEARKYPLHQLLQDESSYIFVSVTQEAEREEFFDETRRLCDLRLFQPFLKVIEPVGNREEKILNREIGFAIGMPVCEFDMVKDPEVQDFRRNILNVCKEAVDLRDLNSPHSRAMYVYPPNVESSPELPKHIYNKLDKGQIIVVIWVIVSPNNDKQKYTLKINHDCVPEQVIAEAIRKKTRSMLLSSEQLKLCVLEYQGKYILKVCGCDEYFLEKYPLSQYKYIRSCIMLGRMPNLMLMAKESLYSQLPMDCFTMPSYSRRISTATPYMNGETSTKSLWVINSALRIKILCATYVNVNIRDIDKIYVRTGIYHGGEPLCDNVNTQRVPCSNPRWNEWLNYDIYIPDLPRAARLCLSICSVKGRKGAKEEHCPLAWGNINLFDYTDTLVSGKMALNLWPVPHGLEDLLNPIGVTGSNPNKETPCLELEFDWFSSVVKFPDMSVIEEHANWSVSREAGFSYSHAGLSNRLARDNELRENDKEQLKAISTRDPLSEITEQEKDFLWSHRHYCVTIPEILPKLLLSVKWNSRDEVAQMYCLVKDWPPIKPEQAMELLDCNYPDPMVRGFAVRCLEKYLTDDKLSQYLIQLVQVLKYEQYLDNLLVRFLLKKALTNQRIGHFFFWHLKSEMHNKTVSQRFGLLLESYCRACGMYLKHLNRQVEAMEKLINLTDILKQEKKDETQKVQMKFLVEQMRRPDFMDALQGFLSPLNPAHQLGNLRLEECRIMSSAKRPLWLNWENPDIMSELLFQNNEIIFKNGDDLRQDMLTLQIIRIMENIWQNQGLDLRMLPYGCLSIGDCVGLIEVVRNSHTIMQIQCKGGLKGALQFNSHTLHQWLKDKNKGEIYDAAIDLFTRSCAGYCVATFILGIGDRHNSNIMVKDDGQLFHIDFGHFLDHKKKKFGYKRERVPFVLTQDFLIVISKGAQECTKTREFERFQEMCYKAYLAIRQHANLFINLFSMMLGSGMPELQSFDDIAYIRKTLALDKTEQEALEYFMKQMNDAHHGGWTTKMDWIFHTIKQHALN
Sequence of PIK3CG (human) (P48736 whole entry, looked up): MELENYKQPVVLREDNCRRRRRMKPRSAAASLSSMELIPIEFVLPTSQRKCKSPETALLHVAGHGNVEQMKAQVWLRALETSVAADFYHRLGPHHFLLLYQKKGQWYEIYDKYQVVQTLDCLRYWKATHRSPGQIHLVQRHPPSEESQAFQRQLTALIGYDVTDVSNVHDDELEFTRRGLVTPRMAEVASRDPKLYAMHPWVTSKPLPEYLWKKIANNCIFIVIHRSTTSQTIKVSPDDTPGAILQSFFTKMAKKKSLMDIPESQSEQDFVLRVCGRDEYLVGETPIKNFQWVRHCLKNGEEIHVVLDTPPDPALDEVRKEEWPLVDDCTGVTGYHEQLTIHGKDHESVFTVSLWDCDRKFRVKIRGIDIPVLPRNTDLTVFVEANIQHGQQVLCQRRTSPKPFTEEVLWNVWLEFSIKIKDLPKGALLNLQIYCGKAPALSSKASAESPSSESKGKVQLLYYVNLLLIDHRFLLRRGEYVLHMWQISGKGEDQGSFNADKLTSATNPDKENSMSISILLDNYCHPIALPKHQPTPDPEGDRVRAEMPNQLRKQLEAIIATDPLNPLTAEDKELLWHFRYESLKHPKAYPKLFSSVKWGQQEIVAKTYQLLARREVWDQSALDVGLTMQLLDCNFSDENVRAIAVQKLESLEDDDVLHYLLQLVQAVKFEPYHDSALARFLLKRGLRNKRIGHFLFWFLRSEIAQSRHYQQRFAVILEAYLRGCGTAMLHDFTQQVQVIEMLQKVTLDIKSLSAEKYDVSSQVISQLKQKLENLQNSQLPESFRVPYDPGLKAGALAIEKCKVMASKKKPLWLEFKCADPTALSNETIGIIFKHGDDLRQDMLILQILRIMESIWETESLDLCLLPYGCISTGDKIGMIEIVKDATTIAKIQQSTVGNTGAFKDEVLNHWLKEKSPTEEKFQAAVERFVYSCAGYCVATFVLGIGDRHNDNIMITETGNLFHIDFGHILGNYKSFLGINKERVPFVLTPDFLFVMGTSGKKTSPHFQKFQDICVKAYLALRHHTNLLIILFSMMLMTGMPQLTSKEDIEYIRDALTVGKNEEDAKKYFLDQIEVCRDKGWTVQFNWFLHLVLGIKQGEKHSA
Sequence of PIK3CB (Human) (P42338 whole entry, looked up): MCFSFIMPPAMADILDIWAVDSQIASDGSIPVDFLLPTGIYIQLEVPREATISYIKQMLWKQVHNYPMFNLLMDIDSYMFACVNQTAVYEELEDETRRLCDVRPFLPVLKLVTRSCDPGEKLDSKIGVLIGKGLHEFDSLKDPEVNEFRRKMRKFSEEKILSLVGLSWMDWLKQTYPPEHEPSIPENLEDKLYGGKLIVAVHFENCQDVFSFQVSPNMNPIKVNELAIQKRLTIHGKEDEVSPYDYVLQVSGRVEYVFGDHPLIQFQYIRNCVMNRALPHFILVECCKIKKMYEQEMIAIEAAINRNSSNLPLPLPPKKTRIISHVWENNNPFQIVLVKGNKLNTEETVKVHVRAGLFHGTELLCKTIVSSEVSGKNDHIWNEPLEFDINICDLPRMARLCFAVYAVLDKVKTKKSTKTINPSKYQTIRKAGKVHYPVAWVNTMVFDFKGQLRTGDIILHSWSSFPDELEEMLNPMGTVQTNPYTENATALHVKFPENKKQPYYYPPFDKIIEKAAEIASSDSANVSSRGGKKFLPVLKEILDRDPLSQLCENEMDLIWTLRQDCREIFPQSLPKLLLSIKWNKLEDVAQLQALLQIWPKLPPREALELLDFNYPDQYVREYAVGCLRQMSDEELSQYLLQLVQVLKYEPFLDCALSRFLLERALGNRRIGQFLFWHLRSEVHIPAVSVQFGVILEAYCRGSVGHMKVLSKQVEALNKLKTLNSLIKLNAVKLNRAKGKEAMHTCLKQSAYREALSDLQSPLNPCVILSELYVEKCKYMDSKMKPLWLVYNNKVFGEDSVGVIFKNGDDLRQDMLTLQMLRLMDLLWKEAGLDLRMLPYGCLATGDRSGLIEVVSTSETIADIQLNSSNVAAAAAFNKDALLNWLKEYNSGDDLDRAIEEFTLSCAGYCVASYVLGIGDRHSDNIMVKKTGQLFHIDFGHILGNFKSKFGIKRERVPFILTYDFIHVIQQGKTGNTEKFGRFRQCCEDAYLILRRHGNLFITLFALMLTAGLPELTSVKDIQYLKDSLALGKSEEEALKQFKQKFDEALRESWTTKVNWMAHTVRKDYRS
Sequence of PIK3CD (Human) (O00329 whole entry, looked up): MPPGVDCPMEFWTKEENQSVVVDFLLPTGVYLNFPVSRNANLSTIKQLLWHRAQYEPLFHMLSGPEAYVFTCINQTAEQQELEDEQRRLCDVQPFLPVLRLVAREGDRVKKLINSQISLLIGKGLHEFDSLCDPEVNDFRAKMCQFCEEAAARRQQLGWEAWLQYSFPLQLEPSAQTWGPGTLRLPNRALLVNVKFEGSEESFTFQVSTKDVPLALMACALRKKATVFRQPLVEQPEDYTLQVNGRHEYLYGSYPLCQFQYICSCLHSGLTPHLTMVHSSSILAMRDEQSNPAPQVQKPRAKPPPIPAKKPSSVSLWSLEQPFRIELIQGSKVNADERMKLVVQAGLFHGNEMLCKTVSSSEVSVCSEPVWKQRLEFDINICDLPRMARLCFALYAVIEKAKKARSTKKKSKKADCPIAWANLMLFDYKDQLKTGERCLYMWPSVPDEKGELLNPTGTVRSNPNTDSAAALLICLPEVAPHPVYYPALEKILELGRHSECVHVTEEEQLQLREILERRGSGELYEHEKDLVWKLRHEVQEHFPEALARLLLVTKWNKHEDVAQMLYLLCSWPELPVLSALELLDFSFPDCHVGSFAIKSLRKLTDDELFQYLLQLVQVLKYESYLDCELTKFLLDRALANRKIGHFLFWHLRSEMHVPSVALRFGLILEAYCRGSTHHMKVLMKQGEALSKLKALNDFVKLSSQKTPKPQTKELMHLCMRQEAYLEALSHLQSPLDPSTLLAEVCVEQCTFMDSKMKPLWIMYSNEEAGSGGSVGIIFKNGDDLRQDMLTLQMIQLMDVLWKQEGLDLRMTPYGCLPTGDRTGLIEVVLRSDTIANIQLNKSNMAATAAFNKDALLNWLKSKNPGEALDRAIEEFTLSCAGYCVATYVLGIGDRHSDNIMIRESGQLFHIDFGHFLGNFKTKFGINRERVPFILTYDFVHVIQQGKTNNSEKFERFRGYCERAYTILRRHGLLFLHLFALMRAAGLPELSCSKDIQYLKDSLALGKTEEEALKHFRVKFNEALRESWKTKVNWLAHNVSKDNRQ

IC50 (PIK3CD (Human) [1]) [nM] | IC50 (PIK3CA (human) [2]) [nM] | IC50 (PIK3CD (Human) [3]) [nM] | IC50 (PIK3CG (human)) [nM] | IC50 (PIK3CB (Human)) [nM] | IC50 (PIK3CA (human) [4]) [nM] | SMILES
< 100 | 100 to 1000 | < 100 | < 100 | > 10000 |  | C[C@H](Nc1nc(N)nc2cccnc12)c1nc2cccc(-c3cnn(C)c3)c2c(=O)n1-c1ccccc1
 |  | > 10000 | > 10000 | > 10000 | > 10000 | C[C@H](Nc1nc(Cl)ns1)c1cc2cccc(Cl)c2c(=O)n1-c1ccccc1
 |  | 100 to 1000 | < 100 | > 10000 | > 10000 | C[C@H](Nc1nc(Cl)nc2cccnc12)c1cc2cccc(-c3cnn(C)c3)c2c(=O)n1-c1ccccc1
 |  | > 10000 | > 10000 | > 10000 | > 10000 | C[C@H](Nc1ncnc2cc(F)ccc12)c1cc2cccc(Cl)c2c(=O)n1-c1ccccc1
 |  | < 100 | < 100 | 100 to 1000 | 100 to 1000 | C[C@H](Nc1ncnc2cccnc12)c1cc2ccc(F)c(Cl)c2c(=O)n1-c1ccccc1
 |  | < 100 | < 100 | < 100 | 100 to 1000 | C[C@H](Nc1nc(N)nc2cccnc12)c1cc2cccc(Cl)c2c(=O)n1-c1ccc(F)cc1
 |  | < 100 | < 100 | < 100 | 100 to 1000 | C[C@H](Nc1cc(N)ncc1C(N)=O)c1cc2cccc(Cl)c2c(=O)n1-c1ccccc1
< 100 |  | < 100 | < 100 | > 10000 |  | C[C@H](Nc1ncnc2cccnc12)c1cc2cccc(-c3cnn(C)c3)c2c(=O)n1-c1ccccc1
 |  | > 10000 | > 10000 | > 10000 | > 10000 | C[C@H](Nc1ccn2nccc2n1)c1cc2cccc(Cl)c2c(=O)n1-c1ccccc1
 |  | < 100 | < 100 | > 10000 | > 10000 | COc1ncc(-c2cccc3cc([C@H](C)Nc4nc(N)nc5cccnc45)n(-c4ccccc4)c(=O)c23)cn1
< 100 |  | < 100 | < 100 | > 10000 |  | COc1ncc(-c2cccc3nc([C@H](C)Nc4nc(N)nc5cccnc45)n(-c4ccccc4)c(=O)c23)cn1
 |  | < 100 | < 100 | > 10000 | > 10000 | COc1ncc(-c2cccc3cc([C@H](C)Nc4nc(N)nc5cccnc45)n(-c4cccc(F)c4)c(=O)c23)cn1
< 100 |  | < 100 | < 100 |  |  | C[C@H](Nc1ncnc2[nH]cnc12)c1cc2cccc(C(F)(F)F)c2c(=O)n1-c1cccc(F)c1
 |  | < 100 | < 100 | > 10000 | > 10000 | Cc1ncc(-c2cccc3cc([C@H](C)Nc4nc(N)nc5cccnc45)n(-c4ccccc4)c(=O)c23)cn1
 |  | > 10000 | > 10000 | > 10000 | > 10000 | CCOC(=O)c1cnc(N[C@@H](C)c2cc3cccc(-c4ccnc(OC)c4)c3c(=O)n2-c2ccccc2)nc1N
 |  | 100 to 1000 | 100 to 1000 | > 10000 | > 10000 | C[C@H](Nc1cc(Cl)ncc1C(N)=O)c1cc2cccc(Cl)c2c(=O)n1-c1ccccc1
 |  | < 100 | < 100 | > 10000 | > 10000 | Cc1ncc(-c2cccc3cc([C@H](C)Nc4ncnc5cccnc45)n(-c4ccccc4)c(=O)c23)cn1
 |  | < 100 | < 100 | 100 to 1000 | > 10000 | C[C@H](Nc1ncnc2[nH]cc(C#N)c12)c1cc2cccc(C(F)(F)F)c2c(=O)n1-c1ccccc1
 |  | < 100 | < 100 | < 100 | 100 to 1000 | C[C@H](Nc1ncnc2scnc12)c1cc2cccc(C(F)(F)F)c2c(=O)n1-c1ccccc1
 |  | 100 to 1000 | < 100 | > 10000 | > 10000 | CNc1nc(N[C@@H](C)c2cc3cccc(NC)c3c(=O)n2-c2ccccc2)c2ncccc2n1
 |  | 100 to 1000 | 100 to 1000 | > 10000 | > 10000 | C[C@H](Nc1nc(Cl)nc2cccnc12)c1cc2cccc(-c3cnn(C)c3)c2c(=O)n1-c1cccc(F)c1
 |  | < 100 | < 100 | 100 to 1000 | 100 to 1000 | C[C@H](Nc1nc(N)nc2cccnc12)c1nc2cccc(Cl)c2c(=O)n1-c1ccccc1
 |  | > 10000 | > 10000 | > 10000 | > 10000 | C[C@H](Nc1nc(O)nc2cccnc12)c1cc2cccc(C(F)(F)F)c2c(=O)n1-c1cccc(F)c1

IC50 (PIK3CD (Human) [1]) [nM] | IC50 (PIK3CA (human) [2]) [nM] | IC50 (PIK3CD (Human) [3]) [nM] | IC50 (PIK3CG (human)) [nM] | IC50 (PIK3CB (Human)) [nM] | IC50 (PIK3CA (human) [4]) [nM] | SMILES
 |  | < 100 | < 100 | 100 to 1000 | 100 to 1000 | C[C@H](Nc1nc(N)nc2cccnc12)c1cc2cccc(-c3cnc4[nH]ccc4c3)c2c(=O)n1-c1ccccc1
< 100 |  | < 100 | < 100 | > 10000 |  | Cc1ncc(-c2cccc3nc([C@H](C)Nc4nc(N)nc5cccnc45)n(-c4ccccc4)c(=O)c23)cn1
 |  | > 10000 | > 10000 | > 10000 | > 10000 | C[C@H](NCc1cccnc1N)c1cc2cccc(Cl)c2c(=O)n1-c1ccccc1
 |  | > 10000 | > 10000 | > 10000 | > 10000 | C[C@H](Nc1nccc2nccn12)c1cc2cccc(Cl)c2c(=O)n1-c1ccccc1
 |  | < 100 | 100 to 1000 | 100 to 1000 | > 10000 | C[C@H](Nc1ncnc2cccnc12)c1cc2cccc(Cl)c2c(=O)n1CCN1CCCC1
 |  | > 10000 | > 10000 | > 10000 | > 10000 | COc1ncc(-c2cccc3cc([C@H](C)Nc4nc(O)nc5cccnc45)n(-c4ccccc4)c(=O)c23)cn1
 |  | 100 to 1000 | 100 to 1000 | > 10000 | > 10000 | C[C@H](Nc1nc(Cl)nc2cccnc12)c1cc2cccc(-c3cnn(C)c3)c2c(=O)n1C1CC1
 |  | 100 to 1000 | < 100 | > 10000 | > 10000 | CNc1cccc2cc([C@H](C)Nc3nc(N)nc4cccnc34)n(-c3ccccc3)c(=O)c12
 |  | < 100 | < 100 | > 10000 | > 10000 | C[C@H](Nc1ncnc(N)c1C#N)c1cc2cccc(C(F)(F)F)c2c(=O)n1-c1ccccc1
 |  | > 10000 | > 10000 | > 10000 | > 10000 | C[C@H](Nc1ncnc2cnccc12)c1cc2cccc(Cl)c2c(=O)n1-c1ccccc1
 |  | < 100 | < 100 | < 100 | 100 to 1000 | C[C@H](Nc1ccnn2ccnc12)c1cc2cccc(Cl)c2c(=O)n1-c1ccccc1
 |  | < 100 | < 100 | < 100 | 100 to 1000 | C[C@H](Nc1ncnc2cccnc12)c1cc2cccc(Cl)c2c(=O)n1C1CC1
 |  | < 100 | < 100 | > 10000 | 100 to 1000 | COc1cncc(-c2cccc3cc([C@H](C)Nc4ncnc5cccnc45)n(-c4ccccc4)c(=O)c23)c1
< 100 |  | 100 to 1000 |  |  |  | CC(C)n1c([C@H](C)Nc2ncnc3cccnc23)cc2cccc(-c3ccc(=O)n(C)c3)c2c1=O
 |  | < 100 | < 100 | > 10000 | > 10000 | COc1ncc(-c2cccc3cc([C@H](C)Nc4ncnc5cccnc45)n(-c4ccccc4)c(=O)c23)cn1
 |  | < 100 | 100 to 1000 | > 10000 | > 10000 | CNc1nc(N[C@@H](C)c2cc3cccc(-c4cnc(OC)nc4)c3c(=O)n2-c2ccccc2)c2ncccc2n1
 |  | < 100 | < 100 | < 100 | 100 to 1000 | C[C@H](Nc1nc(N)nc2[nH]cnc12)c1cc2cccc(C(F)(F)F)c2c(=O)n1-c1ccccc1
 |  | > 10000 | > 10000 | > 10000 | > 10000 | C[C@@H](c1cc2cccc(Cl)c2c(=O)n1-c1ccccc1)n1c(=O)[nH]c2cnc(N)nc21
 |  | 100 to 1000 | 100 to 1000 | > 10000 | > 10000 | C[C@H](Nc1ccnc2ccnn12)c1cc2scc(-c3cnn(C)c3)c2c(=O)n1-c1ccccc1
 |  | < 100 | < 100 | < 100 | 100 to 1000 | C[C@H](Nc1nc(N)nc2cccnc12)c1cc2cccc(Cl)c2c(=O)n1-c1ccccc1
 |  | < 100 | 100 to 1000 | > 10000 | > 10000 | COc1ncc(-c2cccc3cc([C@H](C)Nc4cc(N)nc5ccnn45)n(-c4ccccc4)c(=O)c23)cn1
 |  | > 10000 | 100 to 1000 | > 10000 | > 10000 | C[C@H](Nc1ncnc2cccnc12)c1cc2cccc(C(=O)O)c2c(=O)n1-c1ccccc1
 |  | < 100 | < 100 | 100 to 1000 | 100 to 1000 | C[C@H](Nc1ncnc2cccnc12)c1cc2cccc(Cl)c2c(=O)n1-c1cccc(F)c1
